We go through three compounds from publication PMC11606603, “The membrane domains of mammalian adenylyl cyclases are lipid receptors” (eLife, 2024).

“And” between values parts separate entries of the source, which are not always exact repeats. Equal values may be shown once. Read-outs that look alike come from different tables or passages of the source.

The target in experiment [1] is T1, HEK293 cells permanently transfected with mAC5 (Homo sapiens, UniProt O95622).
T1 construct: Human mAC genes were from GenScript and fitted with a C-terminal FLAG-tag; FLAG (C); expressed in transfected cells; host or cells: HEK293, permanently transfected
T1 sequence (O95622 whole entry): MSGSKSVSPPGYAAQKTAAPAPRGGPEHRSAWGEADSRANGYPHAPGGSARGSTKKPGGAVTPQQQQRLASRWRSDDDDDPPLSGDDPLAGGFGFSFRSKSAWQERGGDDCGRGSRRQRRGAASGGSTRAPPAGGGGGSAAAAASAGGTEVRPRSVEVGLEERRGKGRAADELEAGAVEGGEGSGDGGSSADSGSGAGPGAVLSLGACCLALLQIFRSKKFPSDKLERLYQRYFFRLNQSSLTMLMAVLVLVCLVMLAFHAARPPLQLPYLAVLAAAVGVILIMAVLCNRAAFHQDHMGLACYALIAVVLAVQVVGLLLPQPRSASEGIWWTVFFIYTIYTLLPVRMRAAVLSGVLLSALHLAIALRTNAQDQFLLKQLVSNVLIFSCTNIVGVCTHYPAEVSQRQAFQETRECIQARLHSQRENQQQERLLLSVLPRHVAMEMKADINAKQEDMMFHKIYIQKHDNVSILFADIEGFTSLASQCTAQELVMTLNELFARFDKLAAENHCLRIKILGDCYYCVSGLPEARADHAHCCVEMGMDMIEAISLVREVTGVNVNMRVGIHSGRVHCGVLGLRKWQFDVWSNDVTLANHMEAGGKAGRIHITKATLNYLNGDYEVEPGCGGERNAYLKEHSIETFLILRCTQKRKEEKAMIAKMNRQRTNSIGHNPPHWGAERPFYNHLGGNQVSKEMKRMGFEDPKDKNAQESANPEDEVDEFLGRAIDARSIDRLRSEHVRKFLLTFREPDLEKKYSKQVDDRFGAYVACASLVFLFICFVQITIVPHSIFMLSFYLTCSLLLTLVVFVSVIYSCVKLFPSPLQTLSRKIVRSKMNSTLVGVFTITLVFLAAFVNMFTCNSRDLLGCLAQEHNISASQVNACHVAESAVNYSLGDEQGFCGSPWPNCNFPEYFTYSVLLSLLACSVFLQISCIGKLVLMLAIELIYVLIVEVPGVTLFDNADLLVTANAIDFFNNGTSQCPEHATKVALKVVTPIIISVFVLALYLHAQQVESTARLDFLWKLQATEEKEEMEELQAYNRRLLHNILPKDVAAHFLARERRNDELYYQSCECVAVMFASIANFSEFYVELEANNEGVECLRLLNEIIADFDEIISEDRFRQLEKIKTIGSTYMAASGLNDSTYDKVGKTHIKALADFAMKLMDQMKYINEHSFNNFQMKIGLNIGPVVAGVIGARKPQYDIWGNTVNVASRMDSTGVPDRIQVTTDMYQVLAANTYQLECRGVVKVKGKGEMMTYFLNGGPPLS
Nature of the experiment: cAMP accumulation assay, isoproterenol-stimulated HEK-mAC5 cells. Type of experiment: cell-based. The method, then: (§1) hAC sequences were from NCBI were: ADCY1: NM_021116.3; ADCY2: NM_020546.2; ADCY3: NM_004036.4; ADCY4: NM_001198568.2; ADCY5: NM_183357.2; ADCY6: NM_015270.4; ADCY7: NM_001114.4; ADCY8: NM_001115.2; ADCY9: NM_001116.3. Human mAC genes were from GenScript and fitted with a C-terminal FLAG-tag. […] The gene was synthesized by GenScript. HEK293 cells were maintained in Dulbeccos Modified Eagle Medium (DMEM) with 10% fetal bovine serum at 37°C and 5% CO2. Transfection with AC plasmids was with PolyJet (SignaGen, Frederick, MD, USA). Permanent cell lines were generated by selection for 7 days with 600 µg/ml G418 and maintained with 300 µg/ml For membrane preparation, cells were tyrpsinized, collected by centrifugation (3000 × g, 5 min) and lysed and homogenized in 20 mM HEPES, pH 7.5, 1 mM Ethylenediaminetetraacetic acid (EDTA), 2 mM MgCl2, 1 mM Dithiothreitol (DTT), one tablet of cOmplete, EDTA-free (per 50 ml) and 250 mM sucrose by 20 strokes in a potter homogenizer on ice. Debris was removed (5 min at 1000 × g, 0°C), membranes were collected at 100,000 × g, 60 min at 0°C, suspended and stored at −80°C in 20 mM MOPS, pH 7.5, 0.5 mM EDTA, 2 mM MgCl2. Membrane preparation from mouse brain cortex was according to [Seth et al., 2020]; [Schultz and Schmidt, 1987]. Three cerebral cortices were dissected and homogenized in 4.5 ml cold 48 mM Tris–HCl, pH 7.4, 12 mM MgC1_2, and 0.1 mM Ethylene glycol-bis(β-aminoethyl ether)-N,N,N′,N′-tetraacetic acid (EGTA) with a Polytron hand disperser (Kinematica AG, Switzerland). The homogenate was centrifuged for 15 min at 12,000 × g at 4°C. The pellet was washed once with 5 ml 1 mM KHCO3. The final suspension in 2 ml 1 mM KHCO3 was stored in aliquots at −80°C.
(§2) HEK293 cells stably expressing mAC isoforms 3, 5, and mAC5(membr)_mAC3(cat) were plated at 2500–10,000 cells/well into 384-well plates. […]. Addition of Cisbio HTRF detection reagents stopped the reaction and cAMP levels were determined.
(In general: cAMP levels reflect the balance of adenylyl cyclase and phosphodiesterase activity.)

For the next experiment, the target named is T2, mAC5(membr)–AC3(cat) (Homo sapiens, UniProt O60266+O95622).
T2 construct: followed by AC5(1–402)_AC3(250–631)_AC5(761–1009)_AC3(862–1144); made in house; host or cells: HEK293, transfected; membrane preparation
T2 sequence (O95622 1-402): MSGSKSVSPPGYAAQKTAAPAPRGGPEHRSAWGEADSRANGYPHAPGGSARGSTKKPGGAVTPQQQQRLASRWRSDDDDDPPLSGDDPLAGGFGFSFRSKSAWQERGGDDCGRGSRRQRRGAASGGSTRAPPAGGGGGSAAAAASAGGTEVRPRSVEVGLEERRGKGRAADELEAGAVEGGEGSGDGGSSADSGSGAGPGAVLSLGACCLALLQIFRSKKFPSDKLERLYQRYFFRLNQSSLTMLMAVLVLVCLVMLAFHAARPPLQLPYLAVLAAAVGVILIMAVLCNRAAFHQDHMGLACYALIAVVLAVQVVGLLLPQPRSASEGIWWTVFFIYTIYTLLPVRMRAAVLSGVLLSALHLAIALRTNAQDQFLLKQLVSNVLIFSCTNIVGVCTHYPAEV
T2 sequence (O60266 250-631): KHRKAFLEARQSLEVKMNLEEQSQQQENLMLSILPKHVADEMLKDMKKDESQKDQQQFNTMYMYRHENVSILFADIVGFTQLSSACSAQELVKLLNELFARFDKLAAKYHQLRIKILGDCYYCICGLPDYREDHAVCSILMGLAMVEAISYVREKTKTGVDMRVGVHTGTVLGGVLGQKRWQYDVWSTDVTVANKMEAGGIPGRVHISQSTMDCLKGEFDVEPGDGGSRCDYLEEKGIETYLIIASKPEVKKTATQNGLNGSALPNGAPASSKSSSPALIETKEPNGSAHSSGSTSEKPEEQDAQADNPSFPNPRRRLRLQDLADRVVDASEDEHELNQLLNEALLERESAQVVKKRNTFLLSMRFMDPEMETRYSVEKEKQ
T2 sequence (O95622 761-1009): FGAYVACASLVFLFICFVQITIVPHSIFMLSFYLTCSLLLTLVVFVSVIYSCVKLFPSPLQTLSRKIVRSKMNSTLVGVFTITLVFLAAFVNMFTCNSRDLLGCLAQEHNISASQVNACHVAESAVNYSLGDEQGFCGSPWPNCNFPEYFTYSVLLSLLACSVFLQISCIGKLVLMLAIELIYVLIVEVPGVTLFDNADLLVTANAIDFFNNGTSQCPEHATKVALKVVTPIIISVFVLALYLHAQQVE
T2 sequence (O60266 862-1144): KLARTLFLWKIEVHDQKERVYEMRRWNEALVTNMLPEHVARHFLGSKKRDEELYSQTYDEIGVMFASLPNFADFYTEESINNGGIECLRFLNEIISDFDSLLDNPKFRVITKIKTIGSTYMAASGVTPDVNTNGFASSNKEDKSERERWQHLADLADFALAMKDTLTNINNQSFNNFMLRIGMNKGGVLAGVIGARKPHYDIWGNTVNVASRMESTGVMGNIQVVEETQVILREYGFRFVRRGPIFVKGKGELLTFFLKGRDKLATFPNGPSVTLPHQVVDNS
Kind of experiment: AC assay, Gsα-stimulated chimera mAC5–3 in membranes from transfected HEK293 cells. The following applies: for Effect on Gsα-stimulated mAC5(membr)–AC3(cat) chimera: 300 nM Gsα, 20 µM oleic acid or 100 µM anandamide, in words. Type of experiment: biochemical. Here is the method:
as §1
In a volume of 10 μl, AC activities were measured using 1 mM ATP, 2 mM MgCl2, 3 mM creatine phosphate, 60 μg/ml creatine kinase, and 50 mM MOPS pH 7.5. The cAMP assay kit from Cisbio (Codolet, France) was used for detection according to the supplier’s instructions. For each assay, a cAMP standard curve was established. EC50 and IC50 values were calculated by GraphPad Prism version 8.4.3 for Windows, GraphPad Software, San Diego, CA, USA, https://www.graphpad.com .

The next experiment addresses T3, mAC9 (Homo sapiens, UniProt O60503).
T3 construct: Human mAC genes were from GenScript and fitted with a C-terminal FLAG-tag; FLAG (C); made in house; host or cells: HEK293, permanently transfected; membrane preparation
Nature of the experiment: AC assay, Gsα-stimulated mAC9 in membranes from transfected HEK293 cells. The experiment is classed as biochemical. In short, it runs like this: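 cAMP detected with a Cisbio kit, calibrated by a cAMP standard curve each run. Reaction: 1 mM ATP, 2 mM MgCl2, 3 mM creatine phosphate, 60 μg/ml creatine kinase, 50 mM MOPS pH 7.5. Enzyme source: membranes of stably transfected HEK293 (G418-selected) carrying FLAG-tagged human AC.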

The target in experiment [2] is T4, HEK293-mAC5(membr)–AC3(cat) cells (Homo sapiens, UniProt O60266+O95622).
T4 construct: followed by AC5(1–402)_AC3(250–631)_AC5(761–1009)_AC3(862–1144); expressed in transfected cells; host or cells: HEK293, stably expressing the chimera
T4 sequence (O95622 1-402): as the sequence (O95622 1-402) above
T4 sequence (O60266 250-631): as the sequence (O60266 250-631) above
T4 sequence (O95622 761-1009): as the sequence (O95622 761-1009) above
T4 sequence (O60266 862-1144): as the sequence (O60266 862-1144) above
Kind of experiment: cAMP accumulation assay, isoproterenol-stimulated HEK-mAC5–3 cells. The experiment is classed as cell-based. The method, then:
as §1, §2

Where [3] appears, read: 20 µM fatty acid, 300 nM Gsα, single experiments.

T3 sequence (O60503 whole entry): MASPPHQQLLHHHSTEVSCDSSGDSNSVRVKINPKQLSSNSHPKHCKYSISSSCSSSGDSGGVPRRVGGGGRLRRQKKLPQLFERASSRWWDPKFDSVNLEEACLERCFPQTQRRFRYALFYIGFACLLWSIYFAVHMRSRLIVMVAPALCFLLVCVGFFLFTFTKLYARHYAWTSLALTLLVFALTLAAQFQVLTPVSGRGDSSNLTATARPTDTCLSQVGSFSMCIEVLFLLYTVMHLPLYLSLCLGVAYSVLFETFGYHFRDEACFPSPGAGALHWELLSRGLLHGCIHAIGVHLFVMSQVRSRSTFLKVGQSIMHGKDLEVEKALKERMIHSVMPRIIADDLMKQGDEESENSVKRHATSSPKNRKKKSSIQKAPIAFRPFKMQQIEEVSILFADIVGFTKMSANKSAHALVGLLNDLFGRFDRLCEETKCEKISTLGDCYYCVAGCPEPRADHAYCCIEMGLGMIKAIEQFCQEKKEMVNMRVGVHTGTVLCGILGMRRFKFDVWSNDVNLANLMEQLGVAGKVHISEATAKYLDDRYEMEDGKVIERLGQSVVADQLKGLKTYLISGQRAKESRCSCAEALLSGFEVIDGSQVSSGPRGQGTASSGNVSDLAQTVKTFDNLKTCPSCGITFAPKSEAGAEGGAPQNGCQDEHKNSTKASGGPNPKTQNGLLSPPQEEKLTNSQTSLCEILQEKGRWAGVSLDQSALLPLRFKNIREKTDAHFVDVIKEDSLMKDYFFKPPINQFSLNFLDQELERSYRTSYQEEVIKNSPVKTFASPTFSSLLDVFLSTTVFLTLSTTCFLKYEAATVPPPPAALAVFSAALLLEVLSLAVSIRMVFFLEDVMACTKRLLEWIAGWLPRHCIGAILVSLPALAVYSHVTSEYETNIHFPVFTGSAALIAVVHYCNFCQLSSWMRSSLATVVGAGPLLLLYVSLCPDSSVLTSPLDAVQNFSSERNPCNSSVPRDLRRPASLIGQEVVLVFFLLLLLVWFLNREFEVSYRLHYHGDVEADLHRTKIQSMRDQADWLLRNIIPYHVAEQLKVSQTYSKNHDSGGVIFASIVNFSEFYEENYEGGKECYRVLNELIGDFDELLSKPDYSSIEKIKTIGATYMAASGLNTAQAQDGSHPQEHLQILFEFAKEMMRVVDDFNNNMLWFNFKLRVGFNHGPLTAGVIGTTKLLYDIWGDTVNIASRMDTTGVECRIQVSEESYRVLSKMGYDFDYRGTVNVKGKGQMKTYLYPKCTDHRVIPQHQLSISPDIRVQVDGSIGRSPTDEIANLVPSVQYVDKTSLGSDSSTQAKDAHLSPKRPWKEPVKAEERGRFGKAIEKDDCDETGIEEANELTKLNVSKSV
T3 sequence (P63092 2-394 Q227L partner): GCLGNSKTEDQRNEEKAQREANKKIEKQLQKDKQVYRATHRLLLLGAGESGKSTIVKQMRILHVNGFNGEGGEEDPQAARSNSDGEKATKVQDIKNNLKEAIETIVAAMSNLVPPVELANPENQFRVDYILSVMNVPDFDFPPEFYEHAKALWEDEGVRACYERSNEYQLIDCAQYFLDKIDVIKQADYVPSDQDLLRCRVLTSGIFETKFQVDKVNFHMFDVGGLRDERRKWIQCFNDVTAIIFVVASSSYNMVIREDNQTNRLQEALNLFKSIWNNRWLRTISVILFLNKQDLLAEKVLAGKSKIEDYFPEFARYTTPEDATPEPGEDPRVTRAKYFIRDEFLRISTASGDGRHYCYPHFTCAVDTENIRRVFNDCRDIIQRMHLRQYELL

What is called EC50 is the concentration needed to bring the measured effect to its halfway point. Regarding `CCCCCCCC/C=C\CCCCCCCC(=O)O` [Oleic acid, Oleic ((9Z)-octadecenoic) acid], the “Effect on isoproterenol-stimulated cAMP formation in HEK-mAC5” value in experiment [1] (2.5 µM isoproterenol, in words) was “unaffected”. Also, the “AC activity (%); 100%= 2.5µM Isoproterenol stimulation” value in experiment [1] (HEK-mAC5, oleic acid 20 µM) is 107% and 100% and 135%. The “Effect on Gsα-stimulated mAC5(membr)–AC3(cat) chimera” value on mAC5(membr)–AC3(cat) is given as “not enhanced”. The “Effect of lipid on 300 nM Gsα-stimulated mAC9” value on mAC9 (20 µM, in words) is given as “significantly enhanced”. Moreover, the “mAC9 activity [%] (100% = 300nM Gsα stimulation)” value on mAC9 (Figure 5 B, oleic acid 0.3 µM) amounted to 100%. Also, the EC50 on mAC9 (enhancement of 300 nM Gsα-stimulated activity, read-out: EC50 for mAC9) came out at 7.8 µM. The “Effect on cAMP formation in HEK293-mAC5(membr)–AC3(cat) cells” value in experiment [2] (in words, data not shown) is listed as “ineffective”.
`CCCCC/C=C\C/C=C\C/C=C\C/C=C\CCCC(=O)O` [Arachidonic acid, Arachidonic ((5Z,8Z,11Z,14Z)-eicosatetraenoic) acid] yielded a concentration for a half-maximal effect (EC50) at mAC9 of 7.5 µM. The “mAC9 activity (%);(100% = Gsα stimulation) stimulated by 300nM Gsα” value at mAC9 (1 µM fatty acid, 300 nM Gsα, single experiments) was 99% and 60% and 111% and 93%; at mAC9 (setting [3]) it was 234% and 150% and 190% and 172% and 188% and 135%. Also, the “mAC9 activity [%] (100% = 300nM Gsα stimulation); 20µM fatty acid concentration” value on mAC9 (setting [3]) was 172% and 188% and 135% and 234% and 150% and 190%.
The IC50 is the concentration that gives 50% inhibition. A lower IC50 goes with greater potency. As to `CCCCC/C=C\C/C=C\C/C=C\C/C=C\CCCC(=O)NCCO` [Anandamide, arachidonoylethanolamide], the IC50 in experiment [1] (2.5 µM isoproterenol) is 133 µM; on mAC5(membr)–AC3(cat) (attenuation of 300 nM Gsα-stimulated activity) it was 29 µM; in experiment [2] (2.5 µM isoproterenol, +0.5 mM IBMX), 60 µM. Moreover, in experiment [1] (100 µM anandamide, 2.5 µM isoproterenol), the “attenuation of cAMP formation in HEK293-mAC5 cells” value turned out to be 23%. Also, the “HEK-mAC activity (%); 100%= 2.5µM Isoproterenol stimulation, HEK-mAC5” value in experiment [1] (Anandamide 1 µM) is 110% and 105% and 81% and 111% and 118% and 98% and 96% and 86%; in experiment [1] (Anandamide 3 µM), 110% and 102% and 93% and 132%; in experiment [1] (Anandamide 10 µM), 108% and 103% and 116% and 87% and 120% and 105% and 102%; in experiment [1] (Anandamide 30 µM) it was 98% and 88% and 95% and 102%; in experiment [1] (Anandamide 60 µM) it was 95% and 75% and 88% and 93% and 110%; in experiment [1] (Anandamide 100 µM), 79% and 86% and 94% and 77% and 62% and 71%. The activity at 0.1 µM in experiment [1] (HEK293, read-out: HEK-mAC activity (%), 100%= 2.5µM Isoproterenol stimulation, HEK-mAC5, Anandamide 0.1 µM) was found to be 100%; in experiment [2] (read-out: HEK-mAC activity (%), 100%= 2.5µM Isoproterenol stimulation, HEK-mAC5-3, Anandamide 0.1 µM) it was 100%. Besides, in experiment [1] (HEK293, read-out: HEK-mAC activity (%), 100%= 2.5µM Isoproterenol stimulation, HEK-mAC5, Anandamide 30 µM), the activity at 30 µM stood at 100%. In addition, the “Effect on basal activity of HEK-mAC5” value in experiment [1] (up to 100 µM, data not shown, in words) is “no effect”. The “Effect on Gsα-stimulated mAC5(membr)–AC3(cat) chimera” value on mAC5(membr)–AC3(cat) was “attenuated”. Further, the “activity [%] (100% = 300nM Gsα stimulation)” value was 41% and 69% and 72% and 65% and 48% and 42% at mAC5(membr)–AC3(cat) (mAC 5-3, 100µM Anandamide concentration, Figure 9 D); 100% at mAC5(membr)–AC3(cat) (mAC5-3, Anandamide 0.1 µM); 126% and 93% and 106% and 127% and 130% and 123% on mAC5(membr)–AC3(cat) (mAC5-3, Anandamide 1 µM); 121% and 102% and 118% and 146% and 144% and 129% on mAC5(membr)–AC3(cat) (mAC5-3, Anandamide 3 µM); 109% and 100% and 102% and 111% and 132% and 115% on mAC5(membr)–AC3(cat) (mAC5-3, Anandamide 10 µM); 77% and 70% and 88% and 68% and 74% on mAC5(membr)–AC3(cat) (mAC5-3, Anandamide 30 µM). The “activity [%] (100% = 300nM Gsα stimulation)” value at mAC5(membr)–AC3(cat) (mAC5-3, Anandamide 100 µM) is 72% and 65% and 48% and 42% and 41% and 69%. The “attenuation of cAMP formation in HEK293-mAC5(membr)–AC3(cat) cells” value in experiment [2] (2.5 µM isoproterenol) is on record as 66%. Also, in experiment [2] (read-out: HEK-mAC activity (%), 100%= 2.5µM Isoproterenol stimulation, HEK-mAC5-3, Anandamide 100 µM), the activity at 100 µM came out at 41%.
